# Results from patent US20070148660A1, “Treatment of maladaptive substance use with H-ras antagonists” (The Regents of the University of California, priority 2005, published 2007).
# Experiments:
# NMDAR = experiment: NMDAR-mediated fEPSPs, hippocampal CA1 field recording; format: cell-based, mouse; conditions: bath application of 80 mM ethanol, n=11
# Procedure: Electrophysiological recordings were performed in C57BL/6J mice ranging from P21 to P26. Briefly, mice were anesthetized with halothane and decapitated as per University of California, San Francisco animal care guidelines. Horizontal sections of the hippocampus ([…]) were prepared with a vibratome (Leica, Nussloch, Germany). Slices were placed in a holding chamber and allowed to recover for at least 1 hr before being placed in the recording chamber and superfused with aCSF saturated with 95% O2/5% CO2 and containing (in mM): 119 NaCl, 1.6 KCl, 1.0 NaH2PO4, 1.3 MgCl2 (for EPSCs) or 0.01 MgCl2 (for field excitatory postsynaptic potentials (fEPSPs)), 2.5 CaCl2, 26.2 NaHCO3 and 11 glucose. […]
# fEPSPs were recorded using a MultiClamp 700A amplifier (Axon Instruments, Union City, Calif.) with […] patch pipettes filled with 1 M NaCl and 25 mM HEPES. To evoke fEPSPs, Schaffer collateral/commissural afferents in hippocampal CA1 region were stimulated with 0.1 Hz pulses using steel bipolar microelectrodes at intensities adjusted to produce an evoked response that was 50% of the maximal recorded fEPSP for each recording. fEPSPs were filtered at 1 kHz, digitized at 10 kHz and collected on-line using with pClamp 9 (Axon Instrument, Union City, Calif.). […]
# NR2A = conditions: 100 mM ethanol, 15 min, L(-tk) cells NR1+NR2A
# Procedure: (§1) L(−tk) were cultured on 100 mm plates. When cells reached 75% confluency, they were transfected with 5 μg of PSD95-GFP cDNA using LipofectAMINE PLUS in accordance with the manufacturer's instructions. 24 hrs after transfection, the expression of the NMDAR subunits NR1+NR2A or NR1+NR2B was induced with […] dexamethasone in DMEM containing 10% FBS, and 0.5 mM ketamine as previously described (21). After 3 days of induction, the cross-linking or immunoprecipitation studies were conducted. Homogenates were obtained as described in (17).
# Cross-linking was performed as described previously (22), with minor modifications. Following treatment, the slices were placed in cold aCSF in the presence or absence of 2 mg/ml of the cross-linking reagent BS^3 for 45 min at 4° C. while shaking. Slices were then rinsed three times with cold aCSF containing 20 mM Tris (pH 7.6), followed by sonication in cold homogenization buffer (10% SDS, 10 mM EDTA, 100 mM Tris (pH 8.0), and protease and phosphatase inhibitor cocktails). The protein concentration was determined using the BCA assay, followed by SDS-PAGE and Western blot analysis. Data are expressed as ratio of normalized surface expressed or internalized receptors to the total receptor levels.
# (§2) Proteins were separated by SDS-PAGE and blotted onto a nitrocellulose membrane. […] Results were quantified by NIH Image 1.61.
# [1] = tested on: NR2A-adaptin β2 association; conditions: 100 mM ethanol, 15 min, L(-tk) cells NR1+NR2A + PSD-95
# Procedure: as §1
# (§3) The treated slices were homogenized in ice-cold buffer containing 1% deoxycholate, protease and phosphatase inhibitors and (in mM): 250 sucrose, 20 Tris-HCl (pH 7.5), 2 EDTA and 10 EGTA. 500 μg of the protein was diluted with 1× immunoprecipitation buffer (1% Triton X-100 and (in mM): 150 NaCl, 10 Tris HCl (pH 7.4), 1 EDTA, 1 EGTA and 0.2 sodium orthovanadate) and incubated with 5 μg of the appropriate antibody, followed by an overnight incubation at 4° C. with protein G agarose beads. The beads were extensively washed, re-suspended in 2× sample buffer and boiled for 5-10 min. The samples were then subjected to SDS-PAGE followed by Western blotting with the appropriate antibodies.
# as §2
# NR2B-adaptin association = conditions: 100 mM ethanol, 15 min, L(-tk) cells NR1+NR2B + PSD-95
# Procedure: as §1, §3, §2
# [2] = tested on: adaptin β2 with the AMPAR subunit GluR1; conditions: 100 mM ethanol, 15 min, hippocampal slices
# Procedure: (§4) Transverse hippocampal slices ([…]) were prepared from 10- to 12-week-old C57BL/6J mice. Slices were allowed to recover for 90 min in artificial cerebrospinal fluid (aCSF) saturated with 95% O2/5% CO2 containing (in mM): 126 NaCl, 1.2 KCl, 1.2 NaH2PO4, 1.2 MgCl2, 2.4 CaCl2, 18 NaHCO3, and 11 glucose. Following recovery, slices were treated with aCSF (control) or ethanol at room temperature, after which the slices were rinsed in cold aCSF, and used either for cross-linking experiments, for Ras activity assay, or for immunoprecipitation. In experiments using Tat-H-Ras DN or the Tat-peptide, the slices were pretreated with either aCSF (control) or 2 μM Tat-H-Ras DN or Tat-peptide for 2 hrs at room temperature, followed by ethanol treatments.
# as §3
# (§5) Proteins were separated by SDS-PAGE and blotted onto a nitrocellulose membrane. After blocking, the membranes were incubated with the specific primary antibody, followed by horseradish peroxidase-conjugated secondary antibody. Detection was obtained followed by enhanced chemiluminescent reaction (Amersham Biosciences), and processed using the STORM PhosphoImager (Amersham Biosciences). Results were quantified by NIH Image 1.61.
# Src kinase = conditions: 100 mM ethanol, 15 min, hippocampal slices
# Procedure: as §4, §3, §5
# adaptin β2 with TrkB = conditions: 100 mM ethanol, 15 min, hippocampal slices
# Procedure: as §4, §3, §5
# [3] = tested on: NR2A-adaptin β2 association; experiment: Co-immunoprecipitation of NR2A and adaptin β2, hippocampal slices; format: cell-based, mouse; conditions: 100 mM ethanol, 15 min
# Procedure: as §4
# as §3, with “The beads were extensively washed, re-suspended in 2× sample buffer and boiled for 5-10 min. The samples were then subjected to SDS-PAGE followed by Western blotting with the appropriate antibodies.” left out
# as §2
# NR2B = conditions: ethanol, hippocampal slices, data not shown
# Procedure: as §4
# (§6) Chymotrypsin experiments were performed as described previously (22), with minor modifications. Following recovery, slices were treated with aCSF or 0.5 mg/ml chymotrypsin at 32° C. for 5 min. […] The protein concentration was determined using the BCA assay, followed by SDS-PAGE and Western blot analysis.
# as §2
# NR2A subunits = conditions: 100 mM ethanol, 15 min, hippocampal slices
# Procedure: as §4, §6, §2
smiles,measurement,setting,value
CCO [ethanol],inhibition of NMDAR-mediated fEPSPs,NMDAR,47+8%
same,internalized pool of NR2A,NR2A,increase
same,association of NR2A with adaptin β2,[1],increase
same,NR2B-adaptin association,NR2B-adaptin association,no change
same,interaction between GluR1 and adaptin β2,[2],no change
same,decrease in the levels of active phosphorylated Src,Src kinase,approximately 40%
same,interaction between TrkB and adaptin β2,adaptin β2 with TrkB,no change
same,association of adaptin β2 with NR2A and vice-versa,[3],significantly increased
same,surface or intracellular levels of NR2B (chymotrypsin),NR2B,no effects
same,internalization of the NR2A subunits (chymotrypsin),NR2A subunits,significantly increased
